Test results reported in patent US10822415B2, “Methods for enhancing the potency of the immune checkpoint inhibitors” (INSERM (INSTITUT NATIONAL DE LA SANTÉ ET DE LA RECHERCHE …, priority 2016, dated 2020).

What was measured:
S1PR1 = S1PR1 (Mus musculus, UniProt O08530); details: mice; by inhibiting tumor vascularization; cited from earlier work
[1] = test system: Yumm murine melanoma cells; experiment: SKI-I treatment with or without immune checkpoint antibody in mice with untransfected Yumm tumors; assay type: in vivo; details: mice harboring Yumm tumors, SKI-I combined with anti-PD-1
Experimental: Animal experiments were conducted in accordance with national and international policies, and our protocol was approved by the Regional Ethics Committee of Midi-Pyrenees. 3.105 of Yumm cell lines (Untransfected, shCtrl, shSK1 or shSK1(2)) were intradermally injected into the flank of 7-week-old C57BL/6 mice (Charles River, L'Arbresle, France). CD8-deficient C57BL/6 mice were a gift from Prof. J. van Meerwijk (INSERM U1043, Toulouse, France). Tumor volume was calculated using a caliper at the indicated days as described (Albinet, Bats et al. 2014). For combination experiments involving shCtrl or shSK1 Yumm cells, mice were challenged intradermally (i.d.) with 3.105 cells on day 0 on their right flank. Mice were then injected i.p. three times with anti-CTLA-4 (200 μg per mouse on D7 and 100 μg per mouse on D10 and D13), and/or with anti-PD-1 or isotype control antibody (200 μg per mouse on D5, D7 and D10). Tumor volumes were measured every 2-3 days. Anti-CTLA-4 (9H10), anti-PD-1 (RMP1-14) and isotype control (2A3) were purchased from BioXcell.
For SKI-I treatment, 5 days after Yumm or MC38 cell implantation, mice were treated or not with 50 mg/kg SKI-I (N′-[(2-hydroxynaphthalen-1-yl)methylidene]-3-(naphthalen-2-yl)-1H-pyrazole-5-carbohydrazide, Enamine) in 50 μl of a mixture of DMSO (10%), Cremophor (5%), Tween-80 (5%) and glucose (80%) (i.p.). […]

Chain of S1PR1 (O08530 whole entry): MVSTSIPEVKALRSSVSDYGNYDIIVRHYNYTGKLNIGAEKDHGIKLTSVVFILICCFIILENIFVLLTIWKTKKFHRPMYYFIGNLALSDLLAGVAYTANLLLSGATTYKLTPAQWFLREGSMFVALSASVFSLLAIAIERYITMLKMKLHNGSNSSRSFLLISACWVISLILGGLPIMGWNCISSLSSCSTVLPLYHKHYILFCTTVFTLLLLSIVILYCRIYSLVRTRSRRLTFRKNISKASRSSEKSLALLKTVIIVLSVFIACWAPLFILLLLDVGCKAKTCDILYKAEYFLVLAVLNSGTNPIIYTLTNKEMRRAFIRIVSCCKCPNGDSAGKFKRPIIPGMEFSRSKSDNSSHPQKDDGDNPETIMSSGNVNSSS

Compound	melanoma progression (S1PR1)	efficacy of anti-PD-1 (tumor growth) [1]
CCCCCCCCc1ccc(CCC(N)(CO)CO)cc1 [FTY720]	reduced melanoma progression	–
O=C(N/N=C/c1c(O)ccc2ccccc12)c1cc(-c2ccc3ccccc3c2)n[nH]1 [SKI-I, N′-[(2-hydroxynaphthalen-1-yl)methylidene]-3-(naphthalen-2-yl)-1H-pyrazole-5-carbohydrazide]	–	enhanced the efficacy of anti-PD-1
